In patent US20170190671A1, “BIS(ARYL)CATECHOL DERIVATIVES AS HERBICIDES” (E I DU PONT DE NEMOURS AND COMPANY, priority 2014, published 2017):

Tests used:
Experiment in all cases: Test E preemergence
Format in all cases: in vivo
Conditions in all cases: scale 0 to 100
[1] = system: sandbur (southern sandbur, Cenchrus echinatus)
Summary of the method: (§1)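 Preemergence: seeds in silt loam treated with compound in non-phytotoxic solvent with surfactant. Postemergence: plants at 1- to 4-leaf stage (2–18 cm) in peat-based medium sprayed likewise. Greenhouse 14–21 days, then visual rating vs controls, 0 (no effect) to 100 (complete control).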

[2] = system: Italian ryegrass (Lolium multiflorum)
Summary of the method: as §1

[3] = system: giant foxtail (Setaria faberii)
Summary of the method: as §1

[4] = system: green foxtail (Setaria viridis)
Summary of the method: as §1

[5] = system: yellow nutsedge (Cyperus esculentus)
Summary of the method: as §1

[6] = system: waterhemp (common waterhemp, Amaranthus rudis)
Summary of the method: as §1

[7] = system: nightshade (eastern black nightshade, Solanum ptycanthum)
Summary of the method: as §1

[8] = system: fall panicum (Panicum dichotomiflorum)
Summary of the method: as §1

[9] = system: morningglory (Ipomoea coccinea)
Summary of the method: as §1

[10] = system: goosegrass (Eleusine indica)
Summary of the method: as §1

[11] = system: hairy beggarticks (Bidens pilosa)
Summary of the method: as §1

[12] = system: soybean (Glycine max)
Summary of the method: as §1

[13] = system: Brazilian crabgrass (Digitaria horizontalis)
Summary of the method: as §1

[14] = system: barnyardgrass (Echinochloa crus-galli)
Summary of the method: as §1

[15] = system: palmer pigweed (Amaranthus palmeri)
Summary of the method: as §1

[16] = system: corn (Zea mays)
Summary of the method: as §1

[17] = system: Surinam grass (Brachiaria decumbens)
Summary of the method: as §1

[18] = system: lambsquarters (Chenopodium album)
Summary of the method: as §1

[19] = system: dayflower (Virginia (VA) dayflower, Commelina virginica)
Summary of the method: as §1

[20] = system: field bindweed (Convolvulus arvensis)
Summary of the method: as §1

[21] = system: arrowleaf sida (Sida rhombifolia)
Summary of the method: as §1

## Fc1cccc(Oc2ncc(Cl)cn2)c1Oc1ncc(C(F)(F)F)cn1 [Compound 43, 5-chloro-2-[5-fluoro-6-[[5-(trifluoromethyl)-2-pyrimidinyl]oxy]phenoxy]pyrimidine]
[1]; 31 g ai/ha
  Plant response rating, Sandbur: 15
[1]; 125 g ai/ha
  Plant response rating, Sandbur: 100
[2]; 31 g ai/ha
  Plant response rating, Ryegrass, Italian: 40
[2]; 125 g ai/ha
  Plant response rating, Ryegrass, Italian: 98
[3]; 31 g ai/ha
  Plant response rating, Foxtail, Giant: 85
[3]; 125 g ai/ha
  Plant response rating, Foxtail, Giant: 100
[4]; 31 g ai/ha
  Plant response rating, Foxtail, Green: 70
[4]; 125 g ai/ha
  Plant response rating, Foxtail, Green: 100
[5]; 31 g ai/ha
  Plant response rating, Nutsedge, Yellow: 0
[5]; 125 g ai/ha
  Plant response rating, Nutsedge, Yellow: 25
[6]; 31 g ai/ha
  Plant response rating, Waterhemp: 90
[6]; 125 g ai/ha
  Plant response rating, Waterhemp: 100
[7]; 31 g ai/ha
  Plant response rating, Nightshade: 98
[7]; 125 g ai/ha
  Plant response rating, Nightshade: 100
[8]; 31 g ai/ha
  Plant response rating, Panicum, Fall: 95
[8]; 125 g ai/ha
  Plant response rating, Panicum, Fall: 100
[9]; 31 g ai/ha
  Plant response rating, Morningglory: 5
[9]; 125 g ai/ha
  Plant response rating, Morningglory: 95
[10]; 31 g ai/ha
  Plant response rating, Goosegrass: 50
[10]; 125 g ai/ha
  Plant response rating, Goosegrass: 100
[11]; 31 g ai/ha
  Plant response rating, Beggarticks: 0
[11]; 125 g ai/ha
  Plant response rating, Beggarticks: 0
[12]; 31 g ai/ha
  Plant response rating, Soybean: 30
[12]; 125 g ai/ha
  Plant response rating, Soybean: 65
[13]; 31 g ai/ha
  Plant response rating, Crabgrass, Brazil: 95
[13]; 125 g ai/ha
  Plant response rating, Crabgrass, Brazil: 100
[14]; 31 g ai/ha
  Plant response rating, Barnyardgrass: 20
[14]; 125 g ai/ha
  Plant response rating, Barnyardgrass: 100
[15]; 31 g ai/ha
  Plant response rating, Pigweed, Palmer: 75
[15]; 125 g ai/ha
  Plant response rating, Pigweed, Palmer: 90
[16]; 31 g ai/ha
  Plant response rating, Corn: 0
[16]; 125 g ai/ha
  Plant response rating, Corn: 50
[17]; 31 g ai/ha
  Plant response rating, Surinam Grass: 25
[17]; 125 g ai/ha
  Plant response rating, Surinam Grass: 80
[18]; 31 g ai/ha
  Plant response rating, Lambsquarters: 95
[18]; 125 g ai/ha
  Plant response rating, Lambsquarters: 100
[19]; 31 g ai/ha
  Plant response rating, Dayflower, VA: 25
[19]; 125 g ai/ha
  Plant response rating, Dayflower, VA: 95
[20]; 31 g ai/ha
  Plant response rating, Field Bindweed: 20
[20]; 125 g ai/ha
  Plant response rating, Field Bindweed: 50
[21]; 31 g ai/ha
  Plant response rating, Arrowleaf Sida: 100
[21]; 125 g ai/ha
  Plant response rating, Arrowleaf Sida: 100
